Non-standard residues stand in square brackets, D forms with d. Residues, ends and D or L forms follow the SMILES beside them. *: point of attachment. C16 alkyl = N-terminal C16 alkyl tail, CCCCCCCCCCCCCCCC*; Palmitoyl = CCCCCCCCCCCCCCCC(=O)*; pS = N[C@@H](COP(=O)(O)O)C(=O)O
Tests used:
[1] = TEM of self-assembled nanofibers (fiber formation and diameter); assay type: physicochemical
Protocol: After synthesis (see, example 10), the PA of FIG. 1 (characterized by ^1H NMR and matrix-assisted laser desorption/ionization time-of-flight mass spectrometry (MALDI-TOF MS): matrix ion [M−H]^−1=1333) was treated with dithiothreitol (DTT) at a pH of 8 to reduce all cysteine residues to free thiols. […] However, upon acidification of the solution below pH 4 the material rapidly becomes insoluble. Solutions more concentrated than 2.5 mg/ml form birefringent gels in water that are self-supporting upon inversion of the container. […] Negatives were digitized in the Umax PowerLook scanner with resolution 1200 dpi. The average thickness of the PA fibers was determined by two different procedures. First the Fourier transform of the images and following measurements of the distances between the peaks were performed in the NIH Image […] program. The second approach applied was averaging technique based on the cross-correlation method, widely used in single particle reconstruction using the EMAN […] program. For each data set 1200-1300 individual boxes were selected. […]
Samples of the peptide-amphiphiles were prepared for TEM analysis in two different ways. In some cases a small sample of the gel, prepared in bulk as described above, was smeared onto a holey carbon coated TEM grid (Quantifoil). […]

[2] = Mineralization of PA nanofibers with CaCl2 and Na2HPO4 on TEM grid; details: 30 minutes of incubation with calcium and phosphate
Protocol: To investigate the mineralization properties of PA nanofibers of this invention, the material was assembled and mineralized directly on a holey carbon coated TEM grid—to allow study of the dynamics of the mineralization process while minimizing artifacts of TEM sample preparation. To prepare samples, a drop of aqueous PA (1 mg/ml) was mounted on the holey grid and the self-assembly of the PA was induced in an atmosphere of HCl vapor. The grids were immersed in aqueous iodine to oxidize the cysteine thiol groups to disulfides. After rinsing with distilled water, the PA coated grids were treated with 5 μl of 10 mM CaCl2 on one side and 5 μl of 5 mM Na2HPO4 on the other side. The two solutions are able to mix only by passing through the holes in the carbon support.
In a second control, a PA was prepared in which phosphoserine was replaced by serine and treated as above with calcium and phosphate.

[3] = Solubility, pH-dependent precipitation and gelation in water; assay type: physicochemical
Protocol: After synthesis (see, example 10), the PA of FIG. 1 (characterized by ^1H NMR and matrix-assisted laser desorption/ionization time-of-flight mass spectrometry (MALDI-TOF MS): matrix ion [M−H]^−1=1333) was treated with dithiothreitol (DTT) at a pH of 8 to reduce all cysteine residues to free thiols. […] However, upon acidification of the solution below pH 4 the material rapidly becomes insoluble. Solutions more concentrated than 2.5 mg/ml form birefringent gels in water that are self-supporting upon inversion of the container. […] Negatives were digitized in the Umax PowerLook scanner with resolution 1200 dpi. The average thickness of the PA fibers was determined by two different procedures. First the Fourier transform of the images and following measurements of the distances between the peaks were performed in the NIH Image […] program. The second approach applied was averaging technique based on the cross-correlation method, widely used in single particle reconstruction using the EMAN […] program. For each data set 1200-1300 individual boxes were selected.
Several PAs with basic amino acids that can self-assemble at alkaline pH and also mixed systems, in which oppositely charged PAs self-assemble at neutral pH, were prepared. For this purpose PA compounds 22-25 were prepared by standard solid phase peptide synthesis followed by alkylation with the C16 fatty acid, palmitic acid. See Table 2, FIG. 10b (PA 22) and FIGS. 10c-e (PAs 23-25). The peptides thus prepared were characterized by electrospray mass spectroscopy and found to correspond to their respective expected masses.
Solutions of each compound of example 6 were prepared at a concentration of 0.1 mg/m1 at neutral pH.

[4] = Self-assembly on drying onto a surface; assay type: physicochemical; details: dissolved at neutral / physiological pH (pH 8), dried, negative stain TEM
Source text: Such a facile approach allows this novel material to be formed in a pH independent manner, as may be important in applications that are particularly sensitive to changes in pH, including the delivery of cells in conjunction with the gelling system and generally avoiding contact between tissues and materials at non-physiological pH.
Illustrating another gelation factor of this invention, self-assembly can occur by simply taking a PA (such as PA 17, Table 2) or a combination of PAs dissolved in water at pH 8 and placing it on a surface which is allowed to dry (for example, directly on a carbon coated TEM grid). […] (See, FIG. 11.)

Compound | fiber diameter, positively and negatively stained dried fibers ([1]; TEM, dried) [nm] | fiber diameter, cryo-TEM ([1]; native hydrated gel) [nm] | mineral observed on the fibers by TEM [2] | pH below which the material rapidly becomes insoluble on acidification ([3]; acidification of the aqueous solution) [pH] | concentration above which solutions form self-supporting birefringent gels in water ([3]; after acidification) [µg/mL] | solubility in water ([3]; pH of 8, DTT-reduced) [mg/mL] | self-assembly on drying from solution onto a surface [4]
CCCCCCCCCCCCCCCC(=O)N[C@@H](CS)C(=O)N[C@@H](CS)C(=O)N[C@@H](CS)C(=O)N[C@@H](CS)C(=O)NCC(=O)NCC(=O)NCC(=O)N[C@@H](COP(=O)(O)O)C(=O)N[C@@H](CCCNC(=N)N)C(=O)NCC(=O)N[C@@H](CC(=O)O)C(=O)O [PA 26, Alkyl*-C4G3S^(P)RGD-COOH] (Palmitoyl-CCCCGGG[pS]RGD-OH) | 6.0±1 | 7.6±1 | heavy crystallization | < 4 | > 2500 | > 50 | 
17 ({C16 alkyl}-CCCCGGG[pS]RGD-OH; cysteine pairing not given here) [compound 17] |  |  |  |  |  |  | formation of nanofibers
